In general, residual activity refers to the signal under treatment as a percentage of the control signal.

The source of these data is ChEMBL document CHEMBL5649166, “RIP3 induces apoptosis independent of pronecrotic kinase activity” (Mol Cell, 2014).

The target in assay [1] is T1, Ephrin type-B receptor 4 (Homo sapiens) (UniProt P54760).
T1 sequence (whole entry): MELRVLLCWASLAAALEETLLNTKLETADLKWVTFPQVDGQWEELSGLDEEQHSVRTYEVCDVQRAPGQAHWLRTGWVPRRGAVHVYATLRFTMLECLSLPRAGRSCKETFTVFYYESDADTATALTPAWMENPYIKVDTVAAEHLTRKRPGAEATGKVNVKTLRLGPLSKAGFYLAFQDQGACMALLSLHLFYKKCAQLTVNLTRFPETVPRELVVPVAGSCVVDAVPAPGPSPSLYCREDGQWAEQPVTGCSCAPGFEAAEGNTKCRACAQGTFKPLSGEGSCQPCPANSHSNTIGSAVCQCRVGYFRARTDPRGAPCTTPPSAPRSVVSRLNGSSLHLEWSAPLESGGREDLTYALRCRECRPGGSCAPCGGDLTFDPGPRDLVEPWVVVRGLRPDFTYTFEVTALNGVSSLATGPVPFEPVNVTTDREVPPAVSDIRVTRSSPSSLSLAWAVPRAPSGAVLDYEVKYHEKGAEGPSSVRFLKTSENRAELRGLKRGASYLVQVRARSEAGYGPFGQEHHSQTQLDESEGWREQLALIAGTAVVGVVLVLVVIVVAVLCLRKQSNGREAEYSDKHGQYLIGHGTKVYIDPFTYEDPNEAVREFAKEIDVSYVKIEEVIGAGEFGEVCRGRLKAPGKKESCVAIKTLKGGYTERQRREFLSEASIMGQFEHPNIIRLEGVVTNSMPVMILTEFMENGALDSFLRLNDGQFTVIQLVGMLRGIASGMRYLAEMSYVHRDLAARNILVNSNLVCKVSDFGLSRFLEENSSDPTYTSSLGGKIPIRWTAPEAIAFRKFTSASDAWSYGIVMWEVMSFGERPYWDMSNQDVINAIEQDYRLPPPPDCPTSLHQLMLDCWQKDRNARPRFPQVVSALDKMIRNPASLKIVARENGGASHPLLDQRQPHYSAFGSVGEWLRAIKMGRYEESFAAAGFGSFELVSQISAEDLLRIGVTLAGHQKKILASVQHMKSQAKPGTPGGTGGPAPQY
Description: Inhibition of human EPHB4 using poly[Glu:Tyr] (4:1) as substrate at 1 uM in presence of 32P-ATP by Hotspot assay relative to control; values are per cent of control.

For assay [2], the target named is Ephrin type-A receptor 2 (Homo sapiens) (UniProt P29317). Put plainly: Inhibition of human EPHA2 using poly[Glu:Tyr] (4:1) as substrate at 1 uM in presence of 32P-ATP by Hotspot assay relative to control; values are per cent of control.
Ephrin type-A receptor 2 (Homo sapiens), sequence (P29317 whole entry): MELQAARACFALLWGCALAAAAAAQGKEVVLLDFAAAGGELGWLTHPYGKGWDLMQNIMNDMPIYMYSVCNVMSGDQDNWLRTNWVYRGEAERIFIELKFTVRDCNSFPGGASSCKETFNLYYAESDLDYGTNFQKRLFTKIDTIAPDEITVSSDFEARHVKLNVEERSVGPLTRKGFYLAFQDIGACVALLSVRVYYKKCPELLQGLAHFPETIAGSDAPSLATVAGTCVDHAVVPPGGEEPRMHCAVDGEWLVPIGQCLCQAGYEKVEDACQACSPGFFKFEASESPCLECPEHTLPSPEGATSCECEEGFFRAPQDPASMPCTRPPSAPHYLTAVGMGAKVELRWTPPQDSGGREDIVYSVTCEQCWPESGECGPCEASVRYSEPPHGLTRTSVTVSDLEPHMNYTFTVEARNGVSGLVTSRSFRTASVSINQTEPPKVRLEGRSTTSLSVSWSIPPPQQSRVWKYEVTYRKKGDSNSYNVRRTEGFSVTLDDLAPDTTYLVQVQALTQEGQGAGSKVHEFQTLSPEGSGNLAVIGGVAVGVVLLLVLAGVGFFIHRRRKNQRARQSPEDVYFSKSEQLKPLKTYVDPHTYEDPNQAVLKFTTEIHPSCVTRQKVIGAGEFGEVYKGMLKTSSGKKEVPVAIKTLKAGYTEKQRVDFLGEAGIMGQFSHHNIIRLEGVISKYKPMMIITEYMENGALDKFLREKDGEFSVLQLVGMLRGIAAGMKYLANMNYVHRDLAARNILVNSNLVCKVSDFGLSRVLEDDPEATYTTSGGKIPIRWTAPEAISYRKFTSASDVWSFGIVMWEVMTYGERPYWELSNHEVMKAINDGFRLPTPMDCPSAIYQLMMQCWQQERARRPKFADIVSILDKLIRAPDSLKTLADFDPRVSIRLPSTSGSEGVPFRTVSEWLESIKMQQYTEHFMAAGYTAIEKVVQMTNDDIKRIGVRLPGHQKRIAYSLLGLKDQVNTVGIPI
Assay [3] concerns the target T2, Serine/threonine-protein kinase BRSK1 (Homo sapiens) (UniProt Q8TDC3).
T2 sequence (whole entry): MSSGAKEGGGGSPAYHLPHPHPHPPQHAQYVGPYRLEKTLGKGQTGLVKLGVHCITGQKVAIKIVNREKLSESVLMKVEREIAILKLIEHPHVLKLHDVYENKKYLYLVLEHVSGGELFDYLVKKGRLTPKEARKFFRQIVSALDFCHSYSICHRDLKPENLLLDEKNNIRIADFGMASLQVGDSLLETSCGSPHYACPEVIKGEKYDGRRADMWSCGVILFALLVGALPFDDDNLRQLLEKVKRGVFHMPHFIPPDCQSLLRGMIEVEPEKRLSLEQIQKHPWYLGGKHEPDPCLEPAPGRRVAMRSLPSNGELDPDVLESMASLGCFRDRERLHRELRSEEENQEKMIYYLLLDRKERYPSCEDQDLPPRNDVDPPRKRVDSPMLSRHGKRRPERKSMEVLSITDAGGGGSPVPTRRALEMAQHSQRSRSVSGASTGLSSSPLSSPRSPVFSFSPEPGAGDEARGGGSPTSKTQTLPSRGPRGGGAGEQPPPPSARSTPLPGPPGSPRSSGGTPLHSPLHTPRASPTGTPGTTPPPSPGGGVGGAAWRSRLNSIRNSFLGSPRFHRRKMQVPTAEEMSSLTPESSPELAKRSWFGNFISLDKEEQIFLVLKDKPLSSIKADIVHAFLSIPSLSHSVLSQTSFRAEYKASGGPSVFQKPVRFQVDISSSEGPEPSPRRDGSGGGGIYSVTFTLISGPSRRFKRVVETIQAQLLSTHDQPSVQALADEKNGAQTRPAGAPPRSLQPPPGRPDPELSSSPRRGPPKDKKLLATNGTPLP
Put plainly: Inhibition of human BRSK1 using KKKVSRSGLYRSPSMPENLNRPR as substrate at 1 uM in presence of 32P-ATP by Hotspot assay relative to control; values are per cent of control.

Assay [4] addresses Misshapen-like kinase 1 (Homo sapiens) (UniProt Q8N4C8). Put plainly: Residual activity of human MINK/MINK1 using myelin basic protein as substrate at 1 uM in presence of 32P-ATP by Hotspot assay relative to control.
For assay [5], the target named is T3, Protein kinase C epsilon type (Homo sapiens) (UniProt Q02156).
T3 sequence (whole entry): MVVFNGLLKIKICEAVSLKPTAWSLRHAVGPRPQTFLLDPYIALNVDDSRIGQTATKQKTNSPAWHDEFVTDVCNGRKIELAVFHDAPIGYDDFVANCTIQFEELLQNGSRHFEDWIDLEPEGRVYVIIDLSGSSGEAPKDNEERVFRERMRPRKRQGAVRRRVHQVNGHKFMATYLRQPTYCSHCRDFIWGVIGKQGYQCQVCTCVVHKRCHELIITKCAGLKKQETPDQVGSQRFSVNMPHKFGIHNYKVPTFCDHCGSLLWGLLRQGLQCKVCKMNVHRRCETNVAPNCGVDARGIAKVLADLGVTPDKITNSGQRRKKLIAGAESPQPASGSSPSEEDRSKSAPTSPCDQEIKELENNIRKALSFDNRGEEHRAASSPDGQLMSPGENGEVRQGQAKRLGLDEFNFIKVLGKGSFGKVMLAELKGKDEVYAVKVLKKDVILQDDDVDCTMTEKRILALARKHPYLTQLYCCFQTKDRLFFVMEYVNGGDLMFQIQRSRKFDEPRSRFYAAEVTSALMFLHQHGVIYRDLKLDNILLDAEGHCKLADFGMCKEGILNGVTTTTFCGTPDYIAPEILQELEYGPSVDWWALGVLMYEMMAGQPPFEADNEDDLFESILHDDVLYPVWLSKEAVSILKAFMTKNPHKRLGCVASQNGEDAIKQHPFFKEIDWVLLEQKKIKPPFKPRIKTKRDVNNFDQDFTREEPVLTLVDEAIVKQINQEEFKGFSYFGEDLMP
Description: Inhibition of human PKCepsilon using ERMRPRKRQGSVRRRV as substrate at 1 uM in presence of 32P-ATP by Hotspot assay relative to control; values are per cent of control.

Misshapen-like kinase 1 (Homo sapiens), sequence (Q8N4C8 whole entry, looked up): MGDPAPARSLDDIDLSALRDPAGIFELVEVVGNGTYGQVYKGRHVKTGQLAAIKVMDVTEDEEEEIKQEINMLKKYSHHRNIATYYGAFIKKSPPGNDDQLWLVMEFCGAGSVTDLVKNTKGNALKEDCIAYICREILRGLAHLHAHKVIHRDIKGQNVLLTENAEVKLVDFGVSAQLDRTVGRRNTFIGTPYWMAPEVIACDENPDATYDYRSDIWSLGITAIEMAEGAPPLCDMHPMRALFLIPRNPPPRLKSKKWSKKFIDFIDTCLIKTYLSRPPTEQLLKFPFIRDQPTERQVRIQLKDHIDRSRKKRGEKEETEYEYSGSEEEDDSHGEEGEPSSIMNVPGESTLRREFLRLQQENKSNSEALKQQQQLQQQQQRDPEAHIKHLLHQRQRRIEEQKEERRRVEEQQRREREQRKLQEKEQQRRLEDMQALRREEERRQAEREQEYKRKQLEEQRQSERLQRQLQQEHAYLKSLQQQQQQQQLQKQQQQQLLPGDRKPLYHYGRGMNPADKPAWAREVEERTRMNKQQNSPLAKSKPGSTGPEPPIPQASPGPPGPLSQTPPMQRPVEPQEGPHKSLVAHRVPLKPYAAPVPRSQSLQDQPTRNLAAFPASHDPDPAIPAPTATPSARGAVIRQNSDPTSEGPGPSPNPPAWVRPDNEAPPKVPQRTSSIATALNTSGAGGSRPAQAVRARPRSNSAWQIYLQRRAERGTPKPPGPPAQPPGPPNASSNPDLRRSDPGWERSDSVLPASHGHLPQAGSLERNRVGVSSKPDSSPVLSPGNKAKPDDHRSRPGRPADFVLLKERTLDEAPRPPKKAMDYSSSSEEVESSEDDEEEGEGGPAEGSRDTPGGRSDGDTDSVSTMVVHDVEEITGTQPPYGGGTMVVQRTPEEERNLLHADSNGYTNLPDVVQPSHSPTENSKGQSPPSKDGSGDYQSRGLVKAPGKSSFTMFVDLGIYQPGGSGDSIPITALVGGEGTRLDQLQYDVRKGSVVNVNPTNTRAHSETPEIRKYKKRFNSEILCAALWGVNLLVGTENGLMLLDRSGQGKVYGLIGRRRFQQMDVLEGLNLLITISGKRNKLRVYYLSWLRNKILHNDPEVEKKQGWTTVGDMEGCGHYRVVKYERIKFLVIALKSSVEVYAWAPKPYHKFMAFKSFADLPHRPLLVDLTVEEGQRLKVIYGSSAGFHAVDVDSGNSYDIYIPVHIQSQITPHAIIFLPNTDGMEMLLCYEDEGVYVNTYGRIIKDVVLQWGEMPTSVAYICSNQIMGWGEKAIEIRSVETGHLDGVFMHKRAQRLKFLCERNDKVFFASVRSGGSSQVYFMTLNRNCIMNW

For `Cc1cc(-c2cnc(N)c3c(-c4ccc5scnc5c4)csc23)n(C)n1`, the residual activity in assay [1] came out at 56.3%; in assay [2], 74.3%; in assay [3], 101%; in assay [4] it was 19.5%; in assay [5], 103%.
The corresponding values for `CC(C)S(=O)(=O)c1ccc2nccc(Nc3ccc4scnc4c3)c2c1` are 60.2%, 80.1%, 101%, 94.6% and 96%.
With `CNC(=O)c1ccc2c(c1)ncn2-c1ccc(CC(=O)OC(C)(C)C)cc1`, the residual activity in assay [1] is 89.7%; in assay [2], 97.3%; in assay [3], 96.6%; in assay [4], 91.8%; in assay [5] it was 96.7%.
